One assay deals with T1, human NK-2 receptor (Homo sapiens, UniProt P21452).
T1 construct: expressed in transfected cells; host or cells: CHO-hNK-2R cells (CHO-derived), membrane preparation
T1 sequence (P21452 1-398): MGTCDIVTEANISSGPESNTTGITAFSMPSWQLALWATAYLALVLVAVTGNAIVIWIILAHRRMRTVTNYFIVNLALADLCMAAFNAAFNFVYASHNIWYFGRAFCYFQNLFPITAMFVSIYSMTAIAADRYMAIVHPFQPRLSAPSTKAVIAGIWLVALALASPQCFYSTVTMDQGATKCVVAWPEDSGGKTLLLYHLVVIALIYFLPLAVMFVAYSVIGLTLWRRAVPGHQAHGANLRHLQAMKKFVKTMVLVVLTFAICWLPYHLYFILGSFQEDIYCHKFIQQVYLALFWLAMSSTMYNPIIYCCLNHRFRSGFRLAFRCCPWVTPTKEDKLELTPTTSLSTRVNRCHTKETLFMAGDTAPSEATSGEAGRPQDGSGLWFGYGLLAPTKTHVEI
Description: NK-2 Receptor Binding Assay ([125I]iodohistidyl-neurokinin A, CHO-hNK-2R membranes). Conditions: for IC50: inhibits fifty percent of binding of [125I]iodohistidyl-neurokinin A to CHO-hNK-2R membranes. The procedure:
The biological activity of the compounds of the present invention was evaluated employing an initial screening assay which rapidly and accurately measured the binding of the tested compound to known NK-1 and NK-2 receptor sites. Assays useful for evaluating tachykinin receptor antagonists are well known in the art. See. e.g., J. Jukic, et al., Life Sciences, 49:1463-1469 (1991); N. Kucharczyk, et al., Journal of Medicinal Chemistry, 36:1654-1661 (1993); N. Rouissi, et al., Biochemical and Biophysical Research Communications, 176:894-901 (1991).
NK-2 Receptor Binding Assay
The CHO-hNK-2R cells, a CHO-derived cell line transformed with the human NK-2 receptor, expressing about 400,000 such receptors per cell, were grown in 75 cm^2 flasks or roller bottles in minimal essential medium (alpha modification) with 10% fetal bovine serum. The gene sequence of the human NK-2 receptor is given in N. P. Gerard, et al., Journal of Biological Chemistry, 265:20455-20462 (1990).
For preparation of membranes, 30 confluent roller bottle cultures were dissociated by washing each roller bottle with 10 ml of Dulbecco's phosphate buffered saline (PBS) without calcium and magnesium, followed by addition of 10 ml of enzyme-free cell dissociation solution (PBS-based, from Specialty Media, Inc.). After an additional 15 minutes, the dissociated cells were pooled and centrifuged at 1,000 RPM for 10 minutes in a clinical centrifuge. Membranes were prepared by homogenization of the cell pellets in 300 ml 50 mM Tris buffer, pH 7.4 with a Tekma® homogenizer for 10-15 seconds, followed by centrifugation at 12,000 RPM (20,000×g) for 30 minutes using a Beckman JA-14® rotor. The pellets were washed once using the above procedure. and the final pellets were resuspended in 100-120 ml 50 mM Tris buffer, pH 7.4, and 4 ml aliquots stored frozen at −70° C. The protein concentration of this preparation was 2 mg/ml.
For the receptor binding assay, one 4-ml aliquot of the CHO-hNK-2R membrane preparation was suspended in 40 ml of assay buffer containing 50 mM Tris, pH 7.4, 3 mM manganese chloride, 0.02% bovine serum albumin (BSA) and 4 μg/ml chymostatin. A 200 μl volume of the homogenate (40 μg protein) was used per sample. The radioactive ligand was [^125I]iodohistidyl-neurokinin A (New England Nuclear, NEX-252), 2200 Ci/mmol. The ligand was prepared in assay buffer at 20 nCi per 100 μl; the final concentration in the assay was 20 pM. Non-specific binding was determined using 1 μM eledoisin. Ten concentrations of eledoisin from 0.1 to 1000 nM were used for a standard concentration-response curve.
All samples and standards were added to the incubation in 10 μl dimethylsulfoxide (DMSO) for screening (single dose) or in 5 μl DMSO for IC50 determinations. The order of additions for incubation was 190 or 195 μl assay buffer, 200 μl homogenate, 10 or 5 μl sample in DMSO, 100 μl radioactive ligand. The samples were incubated 1 hr at room temperature and then filtered on a 48 well Brandel cell harvester through GF/B filters which had been presoaked for two hours in 50 mM Tris buffer, pH 7.7, containing 0.5% BSA. The filter was washed 3 times with approximately 3 ml of cold 50 mm Tris buffer, pH 7.7. The filter circles were then punched into 12×75 mm polystyrene tubes and counted in a gamma counter.

For a further assay, the target named is T2, NK-1 receptor (Homo sapiens, UniProt P25103).
T2 construct: endogenous in cells; host or cells: IM9 cells (human cell line), whole cells
T2 sequence (P25103 whole entry): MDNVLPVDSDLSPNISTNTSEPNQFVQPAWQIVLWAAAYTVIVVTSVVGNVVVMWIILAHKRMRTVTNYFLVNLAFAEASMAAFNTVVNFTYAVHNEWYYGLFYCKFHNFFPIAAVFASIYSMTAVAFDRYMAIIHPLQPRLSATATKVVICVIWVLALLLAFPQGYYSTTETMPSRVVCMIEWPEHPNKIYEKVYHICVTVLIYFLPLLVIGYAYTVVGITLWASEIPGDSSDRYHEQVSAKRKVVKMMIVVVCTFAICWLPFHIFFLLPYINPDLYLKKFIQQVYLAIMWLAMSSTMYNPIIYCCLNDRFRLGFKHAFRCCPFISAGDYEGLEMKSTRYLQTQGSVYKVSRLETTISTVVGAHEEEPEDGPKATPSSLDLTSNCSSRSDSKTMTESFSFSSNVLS
Nature of the assay: NK-1 Receptor Binding Assay (125I-labeled substance P, IM9 cells). To be noted: for IC50: inhibits fifty percent of binding of 125I-substance P to IM9 cells. The procedure:
The biological activity of the compounds of the present invention was evaluated employing an initial screening assay which rapidly and accurately measured the binding of the tested compound to known NK-1 and NK-2 receptor sites. Assays useful for evaluating tachykinin receptor antagonists are well known in the art.
NK-1 Receptor Binding Assay
Radioreceptor binding assays were performed using a derivative of a previously published protocol.
The IM9 cell line is a well-characterized and readily available human cell line.
The reaction was terminated by filtration through a glass fiber filter harvesting system using filters previously soaked for 20 minutes in 0.1% polyethylenimine. Specific binding of labeled substance P was determined in the presence of 20 nM unlabeled ligand.

Experimental findings from US6869957B1, “Non-peptide tachykinin receptor antagonists” (Eli Lilly and Company, priority 1993, dated 2005) are described below.

The term IC50 denotes the point on the concentration scale where inhibition reaches its midpoint. A low value points to greater potency.

Consider `COc1ccccc1CN(CC(Cc1c[nH]c2ccccc12)NC(=O)CN1CCN(c2ccccc2)CC1)C(=O)CNC(=O)OC(C)(C)C` (stereo not drawn) [Example 36], for which the IC50 on human NK-2 receptor was 120 nM; at NK-1 receptor, 10 nM.
The corresponding values for `COc1ccccc1CN(CC(Cc1c[nH]c2ccccc12)NC(=O)CN1CCN(c2ccccc2)CC1)S(C)(=O)=O` (stereo not drawn) [Example 37] are 600 nM and 4.2 nM.
At human NK-2 receptor, `CC(=O)N(C)CC(Cc1c[nH]c2ccccc12)NC(=O)CN1CCN(c2ccccc2)CC1` (stereo not drawn) [Example 38] yielded an IC50 of 8000 nM. The “NK-1 percent inhibition of binding” value at NK-1 receptor (@ 5 μM) was 30% @.
As for `CCCCCCN(CC(Cc1c[nH]c2ccccc12)NC(=O)CN1CCN(c2ccccc2)CC1)C(C)=O` (stereo not drawn) [Example 40], the results for the half-inhibitory concentration (IC50) at human NK-2 receptor and on NK-1 receptor were 910 nM and 21.3 nM, respectively.
Consider `CC(=O)N(CC1CCCCC1)CC(Cc1c[nH]c2ccccc12)NC(=O)CN1CCN(c2ccccc2)CC1` (stereo not drawn) [Example 41], for which the half-inhibitory concentration (IC50) on human NK-2 receptor worked out at 930 nM; on NK-1 receptor, 7.7 nM.
At human NK-2 receptor, `CC(=O)N(CC(Cc1c[nH]c2ccccc12)NC(=O)CN1CCN(c2ccccc2)CC1)c1ccccc1` (stereo not drawn) [Example 42] registered a half-inhibitory concentration (IC50) of 1200 nM. Also, on NK-1 receptor (@ 1 μM), the “NK-1 percent inhibition of binding” value stood at 16% @.
Take `CC(=O)N(CCc1ccccc1)CC(Cc1c[nH]c2ccccc12)NC(=O)CN1CCN(c2ccccc2)CC1` (stereo not drawn) [Example 43]: the IC50 worked out at 39 nM at human NK-2 receptor and 179 nM at NK-1 receptor.
`COc1ccccc1CNCC(Cc1c[nH]c2ccccc12)NC(=O)CN1CCC(N2CCCCC2)CC1` (stereo not drawn) [Example 44]: the “NK-2 percent inhibition of binding” value on human NK-2 receptor (@ 10 μM) is listed as 54 % at. This molecule also showed an IC50 at NK-1 receptor of 25 nM.
With `COc1ccccc1CNCC(Cc1c[nH]c2ccccc12)NC(=O)CN1CCC(N2CCCCC2)CC1` (stereo not drawn) [Example 45], the IC50 at human NK-2 receptor was 5300 nM; at NK-1 receptor, 65 nM.
Take `CC(=O)N(Cc1ccccc1)CC(Cc1c[nH]c2ccccc12)NC(=O)CN1CCC(N2CCCCC2)CC1` (stereo not drawn) [Example 46]: the IC50 at human NK-2 receptor stood at 2400 nM; at NK-1 receptor, 2.2 nM.
`CC(=O)N(CC(Cc1c[nH]c2ccccc12)NC(=O)CN1CCC(N2CCCCC2)CC1)c1ccccc1` (stereo not drawn) [Example 53]: the IC50 on human NK-2 receptor came out at 5200 nM. Further, the “NK-1 percent inhibition of binding” value on NK-1 receptor (@ 5 μM) came out at 58% @.
As to `CC(=O)N(CCc1ccccc1)CC(Cc1c[nH]c2ccccc12)NC(=O)CN1CCC(N2CCCCC2)CC1` (stereo not drawn) [Example 54], the IC50 at human NK-2 receptor came out at 2100 nM; on NK-1 receptor, 30.1 nM.
For `COc1ccccc1CN(CC(Cc1c[nH]c2ccccc12)NC(=O)CNCCNc1ccccc1)C(C)=O` (stereo not drawn) [Example 58] the same measures were 340 nM and 14 nM.
The corresponding values for `COc1ccccc1CN(CC(Cc1c[nH]c2ccccc12)NC(=O)CN1CCCC1)C(C)=O` (stereo not drawn) [Example 59] are 3700 nM and 7.3 nM.
For `COc1ccccc1CN(CC(Cc1c[nH]c2ccccc12)NC(=O)CN1CCCCC1)C(C)=O` (stereo not drawn) [Example 60] the same measures were 3900 nM and 24 nM.
Turning to `COc1ccccc1CN(CC(Cc1c[nH]c2ccccc12)NC(=O)CN1CCCCCC1)C(C)=O` (stereo not drawn) [Example 61], the IC50 at human NK-2 receptor stood at 940 nM; at NK-1 receptor it was 7.2 nM.
The corresponding values for `COc1ccccc1CN(CC(Cc1c[nH]c2ccccc12)NC(=O)CN1CCOCC1)C(C)=O` (stereo not drawn) [Example 62] are 5900 nM and 43 nM.
The corresponding values for `COc1ccccc1CN(CC(Cc1c[nH]c2ccccc12)NC(=O)CN1CCc2ccccc21)C(C)=O` (stereo not drawn) [Example 63] are 490 nM and 74 nM.
Regarding `COc1ccccc1CN(CC(Cc1c[nH]c2ccccc12)NC(=O)CN1CCC(c2ccccc2)CC1)C(C)=O` (stereo not drawn) [Example 65], the figures for the IC50 at human NK-2 receptor and at NK-1 receptor were 600 nM and 7.2 nM, respectively.
`COc1ccccc1CN(CC(Cc1c[nH]c2ccccc12)NC(=O)CN1CCC(N(C)C)CC1)C(C)=O` (stereo not drawn) [Example 66]: the IC50 worked out at 7200 nM at human NK-2 receptor and 4.6 nM on NK-1 receptor.
With `COc1ccccc1CN(CC(Cc1c[nH]c2ccccc12)NC(=O)CN1CC=C(c2ccccc2)CC1)C(C)=O` (stereo not drawn) [Example 67], the IC50 at human NK-2 receptor stood at 750 nM; on NK-1 receptor, 3.8 nM.
Turning to `COc1ccccc1CN(CC(Cc1c[nH]c2ccccc12)NC(=O)CN1CCC(NC(C)=O)(c2ccccc2)CC1)C(C)=O` (stereo not drawn) [Example 68], the IC50 came out at 2400 nM at human NK-2 receptor and 0.41 nM on NK-1 receptor.
The corresponding values for `COc1ccccc1CN(CC(Cc1c[nH]c2ccccc12)NC(=O)CN1CCN(c2ccc(Cl)cc2)CC1)C(C)=O` (stereo not drawn) [Example 69] are 830 nM and 5.4 nM.
The corresponding values for `COc1ccccc1CN(CC(Cc1c[nH]c2ccccc12)NC(=O)CN1CCN(c2cccc(C(F)(F)F)c2)CC1)C(C)=O` (stereo not drawn) [Example 70] are 1000 nM and 13 nM.
For `COc1ccccc1CN(CC(Cc1c[nH]c2ccccc12)NC(=O)CN1CCN(C)CC1)C(C)=O` (stereo not drawn) [Example 71] the same measures were 8900 nM and 7.5 nM.
Consider `COc1ccccc1CN(CC(Cc1c[nH]c2ccccc12)NC(=O)CN1CCN(C2CCCCC2)CC1)C(C)=O` (stereo not drawn) [Example 74], for which the IC50 on human NK-2 receptor is 1000 nM; on NK-1 receptor, 0.36 nM.
Consider `COc1ccccc1CN(C[C@@H](Cc1c[nH]c2ccccc12)NC(=O)CN1CCN(C2CCCCC2)CC1)C(C)=O` [Example 75, (R)-1-[N-(2-methoxybenzyl)acetylamino]-3-(1H-indol-3-yl)-2-[N-(2-((4-cyclohexyl)piperazin-1-yl)acetyl)amino]propane], for which the results for the IC50 on human NK-2 receptor and on NK-1 receptor were 850 nM and 0.18 nM, respectively.
For `COc1ccccc1CN(C[C@H](Cc1c[nH]c2ccccc12)NC(=O)CN1CCN(C2CCCCC2)CC1)C(C)=O` [Example 76] the same measures were 1400 nM and 69 nM.
The corresponding values for `COc1ccccc1CN(CC(Cc1c[nH]c2ccccc12)NC(=O)CN1CCN(Cc2ccccc2)CC1)C(C)=O` (stereo not drawn) [Example 77] are 630 nM and 0.88 nM.
The corresponding values for `COc1ccccc1CN(CC(Cc1c[nH]c2ccccc12)NC(=O)CN1CCN(c2ncccn2)CC1)C(C)=O` (stereo not drawn) [Example 78] are 2100 nM and 10 nM.
As to `COc1ccccc1CN(CC(Cc1c[nH]c2ccccc12)NC(=O)CN1CCN(C(C)=O)CC1)C(C)=O` (stereo not drawn) [Example 79], the IC50 came out at 6100 nM at human NK-2 receptor and 38 nM on NK-1 receptor.
Turning to `CCOC(=O)N1CCN(CC(=O)NC(Cc2c[nH]c3ccccc23)CN(Cc2ccccc2OC)C(C)=O)CC1` (stereo not drawn) [Example 80], the IC50 at human NK-2 receptor turned out to be 3400 nM; on NK-1 receptor it was 19 nM.
Turning to `COc1ccccc1CN(CC(Cc1c[nH]c2ccccc12)NC(=O)CNCc1ccccn1)C(C)=O` (stereo not drawn) [Example 81], the IC50 was 1100 nM at human NK-2 receptor and 13 nM on NK-1 receptor.
